What all share (type): cell-based
One experiment concerns the target T1, CFTR G551D mutant (Homo sapiens, UniProt P13569, G551D).
T1 construct: expressed in transfected cells; host or cells: HEK293 (reverse transfection with plasmid)
Briefly: YFP-halide influx assay for the CFTR-G551D mutation. The following applies: HEK293 cells, forskolin 10.67 μM. In a few lines:
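HEK293 cells reverse-transfected with CFTR G551D and YFP H148Q/I152L/F47L halide sensor, expressed 24 h at 37 °C. Iodide-induced fluorescence quench recorded 7 s after I− injection; response = 1−F/F0, with EC50 from plot against compound concentration.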

The target of experiment [1] is T2, CFTR ΔF508 mutant (Homo sapiens, UniProt P13569, DEL508-508).
T2 construct: expressed in transfected cells; host or cells: CFBE41o- (adenoviral transduction)
T2 sequence (P13569 with tags, fused parts or gaps DEL508-508): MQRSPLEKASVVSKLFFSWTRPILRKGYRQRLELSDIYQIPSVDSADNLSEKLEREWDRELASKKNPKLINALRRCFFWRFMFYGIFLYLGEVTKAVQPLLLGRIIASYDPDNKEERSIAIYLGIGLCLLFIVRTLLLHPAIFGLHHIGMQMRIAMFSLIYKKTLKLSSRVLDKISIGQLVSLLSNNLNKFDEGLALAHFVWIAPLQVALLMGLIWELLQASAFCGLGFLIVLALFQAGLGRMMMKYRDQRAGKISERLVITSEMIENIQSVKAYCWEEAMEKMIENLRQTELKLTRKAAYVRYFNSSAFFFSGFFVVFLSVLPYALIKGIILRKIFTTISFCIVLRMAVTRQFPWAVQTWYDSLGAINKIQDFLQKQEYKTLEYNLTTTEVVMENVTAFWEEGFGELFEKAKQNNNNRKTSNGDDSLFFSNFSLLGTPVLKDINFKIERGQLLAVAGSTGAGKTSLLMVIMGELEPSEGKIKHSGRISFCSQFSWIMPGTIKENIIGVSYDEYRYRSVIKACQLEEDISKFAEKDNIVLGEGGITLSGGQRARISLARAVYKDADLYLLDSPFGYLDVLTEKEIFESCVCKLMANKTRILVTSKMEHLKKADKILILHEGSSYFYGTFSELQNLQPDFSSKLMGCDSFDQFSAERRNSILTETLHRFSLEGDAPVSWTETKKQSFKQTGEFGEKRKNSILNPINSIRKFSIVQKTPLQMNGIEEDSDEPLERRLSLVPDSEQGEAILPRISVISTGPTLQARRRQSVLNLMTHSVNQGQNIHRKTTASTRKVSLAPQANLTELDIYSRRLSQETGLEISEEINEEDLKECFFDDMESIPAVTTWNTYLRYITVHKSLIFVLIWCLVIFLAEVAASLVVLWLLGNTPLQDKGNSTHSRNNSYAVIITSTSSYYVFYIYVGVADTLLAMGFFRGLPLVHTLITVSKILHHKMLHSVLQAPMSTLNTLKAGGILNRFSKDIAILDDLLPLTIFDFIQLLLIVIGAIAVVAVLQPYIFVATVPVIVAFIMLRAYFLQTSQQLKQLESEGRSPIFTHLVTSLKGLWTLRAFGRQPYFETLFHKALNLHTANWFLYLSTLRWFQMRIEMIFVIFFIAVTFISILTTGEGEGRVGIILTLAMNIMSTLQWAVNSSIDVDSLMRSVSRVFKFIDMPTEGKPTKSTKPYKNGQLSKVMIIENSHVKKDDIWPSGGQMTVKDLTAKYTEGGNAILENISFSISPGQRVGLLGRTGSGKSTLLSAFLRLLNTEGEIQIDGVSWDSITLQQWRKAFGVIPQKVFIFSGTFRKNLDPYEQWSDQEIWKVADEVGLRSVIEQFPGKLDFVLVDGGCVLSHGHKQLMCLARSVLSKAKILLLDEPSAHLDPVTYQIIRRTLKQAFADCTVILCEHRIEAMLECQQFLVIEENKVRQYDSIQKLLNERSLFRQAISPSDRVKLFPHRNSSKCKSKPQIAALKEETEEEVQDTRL
The experiment in a line: YFP-halide influx assay for the CFTR-ΔF508 mutation, PBS buffer (96 well). The following applies: CFBE41o- cells, forskolin 10.67 μM. An excerpt:
The YFP halide influx assay measures the functionality of the cystic fibrosis Transmembrane Conductance regulator (CFTR) channels in the cystic fibrosis bronchial epithelium cell line CFBE41o-. The assay is used to evaluate the capacity of compounds to increase the open probability of existing CFTR channels in the membrane. It makes use of the observation that the yellow fluorescent protein (YFP) variant YFP H148Q, I152L has its fluorescence substantially quenched by halide ions like Cl^− and I^−. (Galietta, Haggie, & Verkman, 2001) (Nagai, et al., 2002)
For this purpose, CFBE41o-cells are seeded in 96 well plates (6000 CFBE cells/well). One day after seeding, the CFBE cells are transduced with adenoviral vectors that direct the expression of the CFTR ΔF508 mutant and of the YFP reporter. Cells are incubated at 27° C., 5% CO2 for 24 hours so as to allow for the proper folding and migration to the membrane of the CFTR channel or treated with a CFTR modulator during 24 hours at 37° C.
The I^− induced quenching of fluorescence is recorded immediately after injection of I^− for 7 seconds. The capacity of a compound to increase the channel opening is directly correlated with the decrease in fluorescence, and is expressed as (1-(fluorescence after 7 seconds (F)/fluorescence before injection (F0))) and an EC50 can be derived from a (1-F/F0) vs compound concentration plot.

The target in experiment [2] is T2, CFTR ΔF508 mutant. Briefly: YFP-halide influx assay for the CFTR-ΔF508 mutation (384 well, FDSS/μCell). The following applies: CFBE41o- cells, CFTR-ΔF508, 1×D-PBS, fluorescence after 36 seconds. The gist of the method:
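Potentiator read-out as 1−F/F0, F taken 36 s after iodide addition, EC50 fitted against compound concentration. Cells: CFBE41o- expressing ΔF508 CFTR plus halide-sensitive YFP via adenovirus, rescued by 27 °C for 24 h or 24 h modulator at 37 °C.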

T1 sequence (P13569 whole entry G551D): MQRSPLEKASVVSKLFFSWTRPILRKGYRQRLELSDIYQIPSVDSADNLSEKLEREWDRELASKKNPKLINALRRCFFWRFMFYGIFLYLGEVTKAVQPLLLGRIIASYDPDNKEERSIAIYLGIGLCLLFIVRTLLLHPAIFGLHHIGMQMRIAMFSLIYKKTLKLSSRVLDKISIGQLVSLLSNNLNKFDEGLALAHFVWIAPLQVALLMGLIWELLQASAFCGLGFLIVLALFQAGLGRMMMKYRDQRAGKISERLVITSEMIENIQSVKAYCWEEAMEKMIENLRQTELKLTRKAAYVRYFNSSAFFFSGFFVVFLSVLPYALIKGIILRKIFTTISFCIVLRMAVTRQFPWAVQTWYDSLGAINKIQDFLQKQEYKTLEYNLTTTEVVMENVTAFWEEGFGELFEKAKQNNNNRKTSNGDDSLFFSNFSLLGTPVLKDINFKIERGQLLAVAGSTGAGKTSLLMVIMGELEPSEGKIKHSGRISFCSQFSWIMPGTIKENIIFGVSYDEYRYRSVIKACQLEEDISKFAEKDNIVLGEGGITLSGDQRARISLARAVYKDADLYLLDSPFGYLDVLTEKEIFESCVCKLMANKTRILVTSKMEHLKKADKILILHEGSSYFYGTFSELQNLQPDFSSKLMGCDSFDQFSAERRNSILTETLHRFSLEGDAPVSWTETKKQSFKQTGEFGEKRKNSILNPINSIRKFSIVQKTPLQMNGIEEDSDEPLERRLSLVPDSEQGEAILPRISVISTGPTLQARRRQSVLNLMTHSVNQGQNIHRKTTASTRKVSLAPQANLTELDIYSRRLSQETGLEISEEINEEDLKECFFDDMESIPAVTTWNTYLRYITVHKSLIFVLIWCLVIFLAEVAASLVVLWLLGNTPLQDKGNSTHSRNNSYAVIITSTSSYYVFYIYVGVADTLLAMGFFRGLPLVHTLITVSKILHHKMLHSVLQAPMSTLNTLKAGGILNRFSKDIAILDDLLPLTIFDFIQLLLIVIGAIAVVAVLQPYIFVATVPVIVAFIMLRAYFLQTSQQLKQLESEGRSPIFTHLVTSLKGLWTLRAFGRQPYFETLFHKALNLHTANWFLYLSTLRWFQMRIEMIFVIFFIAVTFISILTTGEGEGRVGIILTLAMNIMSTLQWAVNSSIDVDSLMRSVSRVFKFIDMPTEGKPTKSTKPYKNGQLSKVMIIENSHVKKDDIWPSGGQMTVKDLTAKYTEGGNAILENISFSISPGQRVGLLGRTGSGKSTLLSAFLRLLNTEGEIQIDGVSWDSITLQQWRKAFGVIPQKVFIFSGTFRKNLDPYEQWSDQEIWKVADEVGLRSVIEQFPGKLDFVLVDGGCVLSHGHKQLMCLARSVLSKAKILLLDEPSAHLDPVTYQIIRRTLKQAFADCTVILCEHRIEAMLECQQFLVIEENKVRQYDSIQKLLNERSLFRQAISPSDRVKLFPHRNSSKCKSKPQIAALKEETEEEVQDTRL

One may read the EC50 as the concentration at which the effect is half-maximal. A lower EC50 goes with greater potency. On to `CN(C1CC1)S(=O)(=O)c1cc(C(N)=O)c(NC(=O)C2(O)CC2)s1` [Compound 232, 5-(N-cyclopropyl-N-methylsulfamoyl)-2-(1-hydroxycyclopropanecarboxamido) thiophene-3-carboxamide], for which the EC50 at CFTR G551D mutant was found to be 1.05 µM; at CFTR ΔF508 mutant [1], 0.128 µM. `CC(C)N(C(C)C)S(=O)(=O)c1cc(C(N)=O)c(NC(=O)C2(O)CC2)s1` [Compound 233, 5-(N,N-diisopropylsulfamoyl)-2-(1-hydroxycyclopropanecarboxamido) thiophene-3-carboxamide]: the values for the EC50 at CFTR G551D mutant (class symbol) and on CFTR ΔF508 mutant [1] were > 1 µM and 0.13 µM, respectively.

Turning to `COc1ccc(CN(C)S(=O)(=O)c2cc(C(N)=O)c(NC(=O)C3(O)CC3)s2)cc1` [Compound 235, 2-(1-hydroxycyclopropanecarboxamido)-5-(N-(4-methoxybenzyl)-N-methylsulfamoyl) thiophene-3-carboxamide], the EC50 at CFTR ΔF508 mutant [2] came to 0.0766 µM; at CFTR ΔF508 mutant [1], 0.0468 µM. For `CC(C)N(c1ccc(F)cc1)S(=O)(=O)c1cc(C(N)=O)c(NC(=O)C2(O)CC2)s1` [Compound 237, 5-(N-(4-fluorophenyl)-N-isopropylsulfamoyl)-2-(1-hydroxycyclopropanecarboxamido) thiophene-3-carboxamide], in that order: 0.108 µM and 0.0663 µM.

Turning to `NC(=O)c1cc(S(=O)(=O)c2ccc(F)cc2)sc1NC(=O)C(O)C(F)(F)F` (stereo not shown) [Compound 252, 5-(4-fluorophenylsulfonyl)-2-(3,3,3-trifluoro-2-hydroxypropanamido) thiophene-3-carboxamide], the EC50 at CFTR G551D mutant is 0.214 µM; at CFTR ΔF508 mutant [1] it was 0.0491 µM. Turning to `CC1CN(S(=O)(=O)c2cc(C(N)=O)c(NC(=O)c3ccccc3C(F)(F)F)s2)CC(C)O1` (stereo not shown) [Compound 258, 5-(2,6-dimethylmorpholinosulfonyl)-2-(2-(trifluoromethyl)benzamido) thiophene-3-carboxamide], the EC50 at CFTR ΔF508 mutant [2] amounted to 0.157 µM; on CFTR ΔF508 mutant [1], 0.102 µM.

Take `CC1COCC(C)N1S(=O)(=O)c1cc(C(N)=O)c(NC(=O)c2ccccc2C(F)(F)F)s1` (stereo not shown) [Compound 259, 5-(3,5-dimethylmorpholinosulfonyl)-2-(2-(trifluoromethyl)benzamido) thiophene-3-carboxamide]: on CFTR ΔF508 mutant [1], the EC50 was 0.144 µM. With `CC1(C)COCCN1S(=O)(=O)c1cc(C(N)=O)c(NC(=O)c2ccccc2C(F)(F)F)s1` [Compound 260, 5-(3,3-dimethylmorpholinosulfonyl)-2-(2-(trifluoromethyl)benzamido) thiophene-3-carboxamide], the values for the EC50 at CFTR ΔF508 mutant [2] and on CFTR ΔF508 mutant [1] were 0.0875 µM and 0.0944 µM, respectively. Take `COCCN(C1CC1)S(=O)(=O)c1cc(C(N)=O)c(NC(=O)c2ccccc2C(F)(F)F)s1` [Compound 261, 5-(N-cyclopropyl-N-(2-methoxyethyl)sulfamoyl)-2-(2-(trifluoromethyl)benzamido) thiophene-3-carboxamide]: the EC50 at CFTR ΔF508 mutant [2] came to 0.0924 µM; on CFTR ΔF508 mutant [1], 0.0319 µM. For `CN(C1CC1)S(=O)(=O)c1cc(C(N)=O)c(NC(=O)c2ccccc2C(F)(F)F)s1` [Compound 262, 5-(N-cyclopropyl-N-methylsulfamoyl)-2-(2-(trifluoromethyl)benzamido) thiophene-3-carboxamide], the EC50 at CFTR ΔF508 mutant [2] stood at 0.115 µM; on CFTR ΔF508 mutant [1] it was 0.0691 µM. Turning to `NC(=O)c1cc(S(=O)(=O)c2ccc(F)cc2)sc1NC(=O)c1ccc(F)cn1` [Compound 266, N-(3-carbamoyl-5-(4-fluorophenylsulfonyl)thiophen-2-yl)-5-fluoropicolinamide], the midpoint of the response on CFTR ΔF508 mutant [1], the EC50, lay at 0.197 µM. On CFTR ΔF508 mutant [1], `NC(=O)c1cc(S(=O)(=O)c2ccc(F)cc2)sc1Nc1ccccn1` [Compound 267, 5-(4-fluorophenylsulfonyl)-2-(pyridin-2-ylamino) thiophene-3-carboxamide] yielded an EC50 of 0.653 µM.

`COC(C)(C)C(=O)Nc1sc(S(=O)(=O)c2ccc(F)cc2)cc1C(N)=O` [Compound 268, 5-(4-fluorophenylsulfonyl)-2-(2-methoxy-2-methylpropanamido) thiophene-3-carboxamide] yielded an EC50 on CFTR ΔF508 mutant [1] of 0.195 µM.

In turn, `CC(C)=CC(=O)Nc1sc(S(=O)(=O)c2ccc(F)cc2)cc1C(N)=O` [Compound 274, 5-(4-fluorophenylsulfonyl)-2-(3-methylbut-2-enamido) thiophene-3-carboxamide] displayed an EC50 at CFTR ΔF508 mutant [1] of 0.231 µM. For the compound `NC(=O)c1cc(S(=O)(=O)c2ccc(F)cc2)sc1NC(=O)C(O)(C(F)(F)F)C(F)(F)F` [Compound 275, 5-(4-fluorophenylsulfonyl)-2-(3,3,3-trifluoro-2-hydroxy-2-(trifluoromethyl)propanamido) thiophene-3-carboxamide], the results for the EC50 on CFTR G551D mutant and at CFTR ΔF508 mutant [1] were 1.72 µM and 0.22 µM, respectively. On to `COCCOC(C)C(=O)Nc1sc(S(=O)(=O)c2ccc(F)cc2)cc1C(N)=O` (stereo not shown) [Compound 276, 5-(4-fluorophenylsulfonyl)-2-(2-(2-methoxyethoxy)propanamido) thiophene-3-carboxamide], for which the EC50 on CFTR G551D mutant worked out at 3.33 µM; on CFTR ΔF508 mutant [1], 0.777 µM. For `NC(=O)c1cc(S(=O)(=O)c2ccc(F)cc2)sc1NC(=O)C1COCCO1` (stereo not shown) [Compound 277, N-(3-carbamoyl-5-(4-fluorophenylsulfonyl)thiophen-2-yl)-1,4-dioxane-2-carboxamide], in that order: 3.33 µM and 0.389 µM. With `Cc1cccnc1S(=O)(=O)c1cc(C(N)=O)c(NC(=O)C(C)(C)O)s1` [Compound 278, 2-(2-hydroxy-2-methylpropanamido)-5-(3-methylpyridin-2-ylsulfonyl) thiophene-3-carboxamide], the EC50 at CFTR G551D mutant (class symbol) was > 1 µM; at CFTR ΔF508 mutant [1] it was 1.4 µM.

On to `COCCOc1cc(F)ccc1S(=O)(=O)c1cc(C(N)=O)c(NC(=O)C(C)(C)O)s1` [Compound 282, 5-(4-fluoro-2-(2-methoxyethoxy)phenylsulfonyl)-2-(2-hydroxy-2-methylpropanamido) thiophene-3-carboxamide], for which the EC50 amounted to 3.33 µM at CFTR G551D mutant and 0.157 µM on CFTR ΔF508 mutant [1]. `Cn1ccnc1S(=O)(=O)c1cc(C(N)=O)c(NC(=O)C(C)(C)O)s1` [Compound 285, 2-(2-hydroxy-2-methylpropanamido)-5-(1-methyl-1H-imidazol-2-ylsulfonyl) thiophene-3-carboxamide]: the EC50 on CFTR G551D mutant (class symbol) and on CFTR ΔF508 mutant [1] was > 1 µM in each case. As to `NC(=O)c1cc(S(=O)(=O)c2ccc(F)cc2)sc1NC(=O)C(O)CO` (stereo not shown) [Compound 288, 2-(2,3-dihydroxypropanamido)-5-(4-fluorophenylsulfonyl) thiophene-3-carboxamide], the EC50 at CFTR G551D mutant (class symbol) is > 1 µM; at CFTR ΔF508 mutant [1], 2.36 µM. On to `CC(=O)OC(C)(C)C(=O)Nc1sc(S(=O)(=O)c2ccccc2C(C)C)cc1C(N)=O` [Compound 294, 1-(3-carbamoyl-5-(2-isopropylphenylsulfonyl)thiophen-2-ylamino)-2-methyl-1-oxopropan-2-yl acetate], for which the figures for the EC50 at CFTR G551D mutant and on CFTR ΔF508 mutant [1] were 1.33 µM and 0.228 µM, respectively. As for `CC(C)(O)C(=O)Nc1sc(S(=O)(=O)c2cc(F)ccc2O)cc1C(N)=O` [Compound 296, 5-(5-fluoro-2-hydroxyphenylsulfonyl)-2-(2-hydroxy-2-methylpropanamido) thiophene-3-carboxamide], the EC50 at CFTR G551D mutant (class symbol) is > 1 µM; on CFTR ΔF508 mutant [1] it was 0.727 µM. As to `Cc1ccc(S(=O)(=O)c2cc(C(N)=O)c(NC(=O)C(C)(C)O)s2)cn1` [Compound 297, 2-(2-Hydroxy-2-methyl-propionylamino)-5-(6-methyl-pyridine-3-sulfonyl)-thiophene-3-carboxylic acid amide], the EC50 was found to be 3.33 µM on CFTR G551D mutant and 0.367 µM on CFTR ΔF508 mutant [1].

On to `Cc1cc(S(=O)(=O)c2cc(C(N)=O)c(NC(=O)C(C)(C)O)s2)ccn1` [Compound 299, 2-(2-Hydroxy-2-methyl-propionylamino)-5-(2-methyl-pyridine-4-sulfonyl)-thiophene-3-carboxylic acid amide], for which the EC50 on CFTR G551D mutant was 3.33 µM; on CFTR ΔF508 mutant [1] it was 0.915 µM.

For `COc1ccccc1S(=O)(=O)c1cc(C(N)=O)c(NC(=O)C(C)(C)O)s1` [Compound 301, 2-(2-hydroxy-2-methylpropanamido)-5-(2-methoxyphenylsulfonyl) thiophene-3-carboxamide], the values for the EC50 on CFTR G551D mutant (class symbol) and on CFTR ΔF508 mutant [1] were > 1 µM and 0.174 µM, respectively. For the compound `COCCN(C1CC1)S(=O)(=O)c1cc(C(N)=O)c(NC(=O)C(C)(C)O)s1` [Compound 306, 5-(N-cyclopropyl-N-(2-methoxyethyl)sulfamoyl)-2-(2-hydroxy-2-methylpropanamido) thiophene-3-carboxamide], the EC50 at CFTR G551D mutant (class symbol) is > 1 µM; at CFTR ΔF508 mutant [1], 0.254 µM.

Values taken from patent US9382254B2, “Compounds and pharmaceutical compositions thereof for the treatment of cystic fibrosis” (Galapagos NV, priority 2013, dated 2016).
